Experiments:
[1] = test system: T1, PC12 cells expressing TrkA and p75^NTR; test: 125I-NGF receptor binding inhibition, PC12 cells; set-up: species or system rat; conditions: compound 50 μM; 125I-NGF 1 nM; 2 h at 4° C.; value is mean of the three replicates
T1 construct: host or cells: PC12 (rat pheochromocytoma)
Method: (§1) The radio-iodination and receptor binding of NGF (Sutter et al., 1979) was performed with modifications (Ross et al., 1997) as follows: Evaluation of the ability of NCP compounds to inhibit TrkA and p75^NTR binding was determined by the binding of ^125I-NGF to PC12 cells (rat pheochromocytoma cells expressing TrkA and p75^NTR obtained from ATCC) and PC12^nnr5 (rat pheocliromocytoma cells expressing p75^NTR only; obtained from Dr. L. Greene, Columbia University, NY). The p75^NTR is in a low affinity state and a high affinity state, respectively, in these cell types (Ross et al., 1998). PC12 and PC12^nnr5 cells were grown in RPMI (Sigma) with 10% heat inactivated donor horse serum and 5% fetal calf serum. Cells were harvested by replacing the medium with calcium, magnesium-free balanced salt solution (Gey's solution) and incubating at 37° C. for 15 minutes. Cells were pelleted by centrifugation and suspended in HKR buffer (10 mM Hepes [pH 7.35] containing 125 mM NaCl, 4.8 mM KCl, 1.3 mM CaCl2, 1.2 mM MgSO4, 1.2 mM KH2PO4, 1 g/L glucose and 1 g/L BSA) at a cell concentration of 2×10^6/mL and kept at 4° C. Triplicate tubes were set up for total binding, non-specific binding and binding in the presence of candidate competitor molecule (i.e., a tube for each data point). Each tube contained ^125I-NGF (at 1 nM), 400,000 cells (for a final cell concentration of 10^6/mL) and NGF (50 nM, to define non-specific binding), as required. The tubes were incubated for 2 h at 4° C. and specific binding evaluated by measuring specifically bound DPM (Ross et al., 1997). Data were analysed and the results expressed as receptor binding observed in the presence of competitor as a percentage of receptor binding in the absence of a competitor.

[2] = test system: T2, PC12^nnr5 cells expressing p75^NTR only; test: 125I-NGF receptor binding inhibition, PC12^nnr5 cells; set-up: species or system rat; conditions: compound 50 μM; 125I-NGF 1 nM; 2 h at 4° C.; value is mean of the three replicates
T2 construct: PC12^nnr5 (rat pheocliromocytoma cells expressing p75^NTR only; obtained from Dr. L. Greene, Columbia University, NY); host or cells: PC12nnr5 (rat pheochromocytoma subline)
T2 sequence (P01139 122-241): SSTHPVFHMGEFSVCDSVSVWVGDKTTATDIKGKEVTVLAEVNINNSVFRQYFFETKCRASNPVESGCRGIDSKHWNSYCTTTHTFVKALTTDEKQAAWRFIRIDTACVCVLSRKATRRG
Method: as §1

[3] = @ 100 μM DMSO

T1 sequence (P01139 122-241): as above

PC12 % of Max (receptor binding in presence of competitor as percentage of binding in absence of competitor) [1]	nnr5 % of Max (receptor binding in presence of competitor as percentage of binding in absence of competitor) [2]	Solubility [3]	Compound
41, 41, 36 = 39 % of Max	12, 0, 47 = 20 % of Max	–	O=C(O)CCCCCN1C(=O)c2cccc3cc([N+](=O)[O-])cc(c23)C1=O [Compound 204, N-(5-carboxypentyl)-3-nitro-1,8-naphthalimide; 2-(5-carboxypentyl)-5-nitrobenzo[d,e]isoquinoline-1,3-dione]
37, 43, 49 = 43 % of Max	21, 17, 26 = 21 % of Max	220 NS (NS: Not Soluble @ 100 μM DMSO)	O=C(O)CN1C(=O)c2cccc3c([N+](=O)[O-])ccc(c23)C1=O [Compound 220, N-(1-carboxymethyl)-4-nitro-1,8-naphthalimide; 2-(1-carboxymethyl)-6-nitrobenzo[d,e]isoquinoline-1,3-dione]
29, 32, 31 = 31 % of Max	41, 37, 42 = 40 % of Max	–	O=C(O)CCN1C(=O)c2cccc3c([N+](=O)[O-])ccc(c23)C1=O [Compound 221, N-(2-carboxyethyl)-4-nitro-1,8-naphthalimide; 2-(2-carboxyethyl)-6-nitrobenzo[d,e]isoquinoline-1,3-dione]
–	–	222 NS (NS: Not Soluble @ 100 μM DMSO)	O=C(O)CCCN1C(=O)c2cccc3c([N+](=O)[O-])ccc(c23)C1=O [Compound 222, N-(3-carboxypropyl)-4-nitro-1,8-naphthalimide; 2-(3-carboxypropyl)-6-nitrobenzo[d,e]isoquinoline-1,3-dione]
27, 33, 33 = 31 % of Max	40, 41, 47 = 43 % of Max	–	O=C(O)CCCCN1C(=O)c2cccc3c([N+](=O)[O-])ccc(c23)C1=O [Compound 223, N-(4-carboxybutyl)-4-nitro-1,8-naphthalimide; 2-(4-carboxybutyl)-6-nitrobenzo[d,e]isoquinoline-1,3-dione]
31, 34, 22 = 29 % of Max	36, 35, 39 = 36 % of Max	–	O=C(O)CCCCCN1C(=O)c2cccc3c([N+](=O)[O-])ccc(c23)C1=O [Compound 224, N-(5-carboxypentyl)-4-nitro-1,8-naphthalimide; 2-(5-carboxypentyl)-6-nitrobenzo[d,e]isoquinoline-1,3-dione]

The next lines start with the compound.

Compound	PC12 % of Max (receptor binding in presence of competitor as percentage of binding in absence of competitor) [1]	nnr5 % of Max (receptor binding in presence of competitor as percentage of binding in absence of competitor) [2]	Solubility [3]
O=C(O)CN1C(=O)c2cccc3cc([N+](=O)[O-])cc(c23)C1=O [Compound 200, N-(1-carboxymethyl)-3-nitro-1,8-naphthalimide; 2-(1-carboxymethyl)-5-nitrobenzo[d,e]isoquinoline-1,3-dione]	92, 87, 74 = 84 % of Max	58, 63, 64 = 62 % of Max	–
O=C(O)CCN1C(=O)c2cccc3cc([N+](=O)[O-])cc(c23)C1=O [Compound 201, N-(2-carboxyethyl)-3-nitro-1,8-naphthalimide; 2-(2-carboxyethyl)-5-nitrobenzo[d,e]isoquinoline-1,3-dione]	27, 32, 41 = 33 % of Max	30, 4, 34 = 23 % of Max	–
O=C(O)CCCN1C(=O)c2cccc3cc([N+](=O)[O-])cc(c23)C1=O [Compound 202, N-(3-carboxypropyl)-3-nitro-1,8-naphthalimide; 2-(3-carboxypropyl)-5-nitrobenzo[d,e]isoquinoline-1,3-dione]	21, 22, 30 = 24 % of Max	16, 0, 0 = 5 % of Max	–
O=C(O)CCCCN1C(=O)c2cccc3cc([N+](=O)[O-])cc(c23)C1=O [Compound 203, N-(4-carboxybutyl)-3-nitro-1,8-naphthalimide; 2-(4-carboxybutyl)-5-nitrobenzo[d,e]isoquinoline-1,3-dione]	36, 41, 35 = 37 % of Max	33, 0, 18 = 17 % of Max	–

From patent publication US6492380B1, “Method of inhibiting neurotrophin-receptor binding” (Queen's University at Kingston, priority 1999, dated 2002)
